The results in this text go back to patent US20250388565A1, “ESTROGEN RECEPTOR ALPHA DEGRADERS AND METHODS OF USE THEREOF” (Relay Therapeutics, Inc., priority 2022, published 2025).

By DC50 is commonly meant the midpoint of the concentration-degradation curve.

The target of the experiment is T1, ERα protein (HiBiT-tagged) in ESR1_HiBiT KI MCF7 cells (Homo sapiens, UniProt P03372).
T1 sequence (P03372 1-595): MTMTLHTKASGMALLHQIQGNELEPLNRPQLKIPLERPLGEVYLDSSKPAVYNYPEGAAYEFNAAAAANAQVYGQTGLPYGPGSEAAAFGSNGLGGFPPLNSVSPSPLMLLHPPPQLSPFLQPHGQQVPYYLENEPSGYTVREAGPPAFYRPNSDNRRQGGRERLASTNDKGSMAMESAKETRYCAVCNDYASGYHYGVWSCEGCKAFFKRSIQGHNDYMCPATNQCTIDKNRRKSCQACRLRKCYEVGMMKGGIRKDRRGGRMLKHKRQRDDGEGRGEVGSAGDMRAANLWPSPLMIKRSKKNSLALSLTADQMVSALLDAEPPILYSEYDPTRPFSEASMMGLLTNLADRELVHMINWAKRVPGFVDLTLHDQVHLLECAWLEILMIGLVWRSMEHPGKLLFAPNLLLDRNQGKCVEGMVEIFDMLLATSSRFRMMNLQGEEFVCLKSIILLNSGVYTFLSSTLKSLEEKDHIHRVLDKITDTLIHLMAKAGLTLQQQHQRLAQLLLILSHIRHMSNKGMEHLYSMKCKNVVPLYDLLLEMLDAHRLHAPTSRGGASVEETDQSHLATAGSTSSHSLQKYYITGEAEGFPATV
The experiment is described as follows: Nano Glo HiBiT Lytic Degradation Assay. The conditions noted are these: 6 hours with compound, 14-point dose response 1:3, bell-shape curve fit, half-maximal effect of first Hill model, read-out: MCF7 ESR1 HiBiT - (DC50). It is filed as cell-based. An outline of the steps:
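HiBiT-tagged endogenous ERα remaining in MCF7 knock-in cells was quantified by lytic luminescence after a 6 h treatment. DC50 values derive from a bell-shaped curve, taken at the first Hill component's half-maximal effect.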
A general note: The HiBiT peptide binds its large partner to form an active luciferase.

For `Cc1cc(F)c([C@H]2CC(F)(F)c3cc(O)ccc3[C@H]2c2ccc(N3CCC(CN4CCN(c5ccc6c(c5)CN([C@H]5CCC(=O)NC5=O)C6=O)CC4)CC3)cc2)cc1F` (single isomer, unassigned) [Compound I-324], the DC50 turned out to be 0.56 nM.

For the molecule `Cc1cc(F)c([C@@H]2CC(F)(F)c3cc(O)ccc3[C@@H]2c2ccc(N3CCC(CN4CCN(c5ccc6c(c5)CN([C@H]5CCC(=O)NC5=O)C6=O)CC4)CC3)cc2)cc1F` (single isomer, unassigned) [Compound I-325], the DC50 turned out to be 11 nM. For `C[C@H]1C[C@@H](c2ccccc2)[C@@H](c2ccc(N3CCC(CN4CCN(c5ccc6c(c5)CN([C@H]5CCC(=O)NC5=O)C6=O)CC4)CC3)cc2)c2ccc(O)cc21` (single isomer, unassigned) [Compound I-331] the value was no less than 10000 nM. With `C[C@@H]1C[C@@H](c2ccccc2)[C@@H](c2ccc(N3CCC(CN4CCN(c5ccc6c(c5)CN([C@H]5CCC(=O)NC5=O)C6=O)CC4)CC3)cc2)c2ccc(O)cc21` (single isomer, unassigned) [Compound I-332], the DC50 is no less than 10000 nM. For `C[C@]1(c2ccccc2)OCc2cc(O)ccc2[C@@H]1c1ccc(N2CCC(CN3CCN(c4ccc5c(c4)CN([C@H]4CCC(=O)NC4=O)C5=O)CC3)CC2)cc1` (single isomer, unassigned) [Compound I-345, (S)-3-(5-(4-((1-(4-((3*S,4*S)-7-hydroxy-3-methyl-3-phenylisochroman-4-yl)phenyl)piperidin-4-yl)methyl)piperazin-1-yl)-1-oxoisoindolin-2-yl)piperidine-2,6-dione] the value was 5 nM. As for `Cc1ccc([C@H]2OCc3cc(O)ccc3[C@H]2c2ccc(N3CCC(CN4CCN(c5ccc6c(c5)CN([C@H]5CCC(=O)NC5=O)C6=O)CC4)CC3)cc2)cc1F` (single isomer, unassigned) [Compound I-355], the DC50 is 0.27 nM. As for `Cc1ccc([C@@H]2OCc3cc(O)ccc3[C@@H]2c2ccc(N3CCC(CN4CCN(c5ccc6c(c5)CN([C@H]5CCC(=O)NC5=O)C6=O)CC4)CC3)cc2)cc1F` (single isomer, unassigned) [Compound I-356], the figure is 54 nM; as for `Cc1ccc(F)cc1[C@H]1OCc2cc(O)ccc2[C@H]1c1ccc(N2CCC(CN3CCN(c4ccc5c(c4)CN([C@H]4CCC(=O)NC4=O)C5=O)CC3)CC2)cc1` (single isomer, unassigned) [Compound I-357], 0.51 nM.

`O=C1CC[C@H](N2Cc3cc(N4CCN(CC5CCN(c6ccc([C@H]7c8ccc(O)cc8CO[C@@H]7c7ccc(O)cc7)cc6)CC5)CC4)ccc3C2=O)C(=O)N1` (single isomer, unassigned) [Compound I-359, (S)-3-(5-(4-((1-(4-((3R*,4R*)-7-hydroxy-3-(4-hydroxyphenyl)isochroman-4-yl)phenyl)piperidin-4-yl)methyl)piperazin-1-yl)-1-oxoisoindolin-2-yl)piperidine-2,6-dione]: the DC50 turned out to be 0.16 nM. As for `O=C1CC[C@H](N2Cc3cc(N4CCN(CC5CCN(c6ccc([C@H]7c8ccc(O)cc8CO[C@H]7c7ccc(O)cc7)cc6)CC5)CC4)ccc3C2=O)C(=O)N1` (single isomer, unassigned) [Compound I-360], the figure is 0.38 nM; as for `O=C1CC[C@H](N2Cc3cc(N4CCN(CC5CCN(c6ccc([C@@H]7c8ccc(O)cc8CO[C@@H]7c7ccc8c(c7)CC8)cc6)CC5)CC4)ccc3C2=O)C(=O)N1` (single isomer, unassigned) [Compound I-363], 0.17 nM; as for `O=C1CC[C@H](N2Cc3cc(N4CCN(CC5CCN(c6ccc([C@H]7c8ccc(O)cc8CO[C@H]7c7ccc8c(c7)CC8)cc6)CC5)CC4)ccc3C2=O)C(=O)N1` (single isomer, unassigned) [Compound I-364], no less than 10000 nM. For `C[C@H]1O[C@H](c2ccccc2)[C@H](c2ccc(N3CCC(CN4CCN(c5ccc6c(c5)CN([C@H]5CCC(=O)NC5=O)C6=O)CC4)CC3)cc2)c2ccc(O)cc21` (single isomer, unassigned) [Compound I-367] the value was 0.24 nM. For `C[C@@H]1O[C@@H](c2ccccc2)[C@@H](c2ccc(N3CCC(CN4CCN(c5ccc6c(c5)CN([C@H]5CCC(=O)NC5=O)C6=O)CC4)CC3)cc2)c2ccc(O)cc21` (single isomer, unassigned) [Compound I-368] the value was 3 nM.

`Cc1c(F)cccc1[C@H]1OCc2cc(O)ccc2[C@H]1c1ccc(N2CCC(CN3CCN(c4ccc5c(c4)CN([C@H]4CCC(=O)NC4=O)C5=O)CC3)CC2)cc1` (single isomer, unassigned) [Compound I-379]: the DC50 worked out at 0.37 nM. As for `Cc1c(F)cccc1[C@@H]1OCc2cc(O)ccc2[C@@H]1c1ccc(N2CCC(CN3CCN(c4ccc5c(c4)CN([C@H]4CCC(=O)NC4=O)C5=O)CC3)CC2)cc1` (single isomer, unassigned) [Compound I-380], the figure is 77 nM; as for `O=C1CC[C@H](N2Cc3cc(N4CCN(CC5CCN(c6ccc([C@@H]7c8ccc(O)cc8CO[C@@H]7c7ccccc7)cc6F)CC5)CC4)ccc3C2=O)C(=O)N1` (single isomer, unassigned) [Compound I-381], 0.16 nM. As for `O=C1CC[C@H](N2Cc3cc(N4CCN(CC5CCN(c6ccc([C@H]7c8ccc(O)cc8CO[C@H]7c7ccccc7)cc6F)CC5)CC4)ccc3C2=O)C(=O)N1` (single isomer, unassigned) [Compound I-382], the figure is 2 nM. As for `Cn1c(=O)n([C@H]2CCC(=O)NC2=O)c2ccc(N3CCN(CC4CCN(c5ccc([C@@H]6c7ccc(O)cc7CO[C@@H]6c6ccccc6)cc5)CC4)CC3)cc21` (single isomer, unassigned) [Compound I-387], the figure is 0.16 nM. As to `Cn1c(=O)n([C@@H]2CCC(=O)NC2=O)c2ccc(N3CCN(CC4CCN(c5ccc([C@@H]6c7ccc(O)cc7CO[C@@H]6c6ccccc6)cc5)CC4)CC3)cc21` (single isomer, unassigned) [Compound I-388], the DC50 was determined as 40 nM.

For `O=C1CC[C@H](c2ccc(N3CCC4(CCN(CC5CCN(c6ccc([C@@H]7c8ccc(O)cc8CO[C@@H]7c7ccccc7)cc6)CC5)C4)CC3)cc2)C(=O)N1` (single isomer, unassigned) [Compound I-389], the DC50 was 0.28 nM. In the case of `O=C1CC[C@@H](c2ccc(N3CCC4(CCN(CC5CCN(c6ccc([C@@H]7c8ccc(O)cc8CO[C@@H]7c7ccccc7)cc6)CC5)C4)CC3)cc2)C(=O)N1` (single isomer, unassigned) [Compound I-390], the DC50 amounted to 22 nM.

Consider `Cn1nc([C@H]2CCC(=O)NC2=O)c2ccc(N3CCN(CC4CCN(c5ccc([C@@H]6c7ccc(O)cc7CO[C@@H]6c6ccccc6)cc5)CC4)CC3)cc21` (single isomer, unassigned) [Compound I-394], for which the DC50 worked out at 0.39 nM. As to `Cn1nc([C@@H]2CCC(=O)NC2=O)c2ccc(N3CCN(CC4CCN(c5ccc([C@@H]6c7ccc(O)cc7CO[C@@H]6c6ccccc6)cc5)CC4)CC3)cc21` (single isomer, unassigned) [Compound I-395], the DC50 came to 0.28 nM. Turning to `O=C1CC[C@H](N2Cc3cc(N4CCN(CC5CCN(c6ccc([C@@H]7c8ccc(O)cc8CC[C@@H]7C7=CCCCC7)cc6)CC5)CC4)ccc3C2=O)C(=O)N1` (single isomer, unassigned) [Compound I-407], the DC50 was 0.19 nM.

On to `O=C1CC[C@H](N2Cc3cc(N4CCC(CN5CCC(n6cc([C@@H]7c8ccc(O)cc8CC[C@@H]7c7ccccc7)cn6)CC5)CC4)ccc3C2=O)C(=O)N1` (single isomer, unassigned) [Compound I-409], for which the DC50 was no less than 10000 nM.
